Results on one substance are retold here after publication PMC11358443, “Polymodal K^+ channel modulation contributes to dual analgesic and anti-inflammatory actions of traditional botanical medicines” (Communications Biology, 2024).

What is called EC50 is the concentration giving half of the maximal effect. As a reminder, the cell viability is the share of living cells, or the viability signal relative to a control. Low readings indicate more harm to the cells, high ones less harm to the cells.

One series addresses T1, TREK-1 (KCNK2) (Homo sapiens, UniProt O95069).
T1 sequence (O95069 1-426): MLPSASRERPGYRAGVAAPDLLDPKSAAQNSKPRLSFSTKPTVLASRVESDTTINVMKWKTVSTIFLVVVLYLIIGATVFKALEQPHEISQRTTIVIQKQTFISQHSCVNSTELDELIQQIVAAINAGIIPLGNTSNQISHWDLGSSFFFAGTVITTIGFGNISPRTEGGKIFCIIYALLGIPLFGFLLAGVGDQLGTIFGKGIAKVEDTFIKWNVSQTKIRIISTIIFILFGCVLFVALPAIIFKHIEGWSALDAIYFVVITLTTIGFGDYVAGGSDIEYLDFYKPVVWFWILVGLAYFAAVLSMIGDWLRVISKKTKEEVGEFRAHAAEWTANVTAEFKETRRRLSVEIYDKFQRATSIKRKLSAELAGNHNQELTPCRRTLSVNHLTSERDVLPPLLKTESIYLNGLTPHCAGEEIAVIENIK
The experiment in a line: TEVC electrophysiology, Xenopus oocytes expressing TREK-1. It is filed as cell-based. On the procedure: We generated human potassium channel cRNA transcripts with the mMessage mMachine kit (Thermo Fisher Scientific, Waltham, MA, USA) according to manufacturer’s instructions, after vector linearization, from cDNA sub-cloned into expression vectors (pTLNx, pXOOM and pMAX). We injected Xenopus laevis oocytes (Xenoocyte, Dexter, MI, USA) with the channel cRNAs (0.5–10 ng) and incubated the oocytes at 16 °C for 1–4 days prior to electrophysiological recording.
We performed TEVC at 20–23 °C with an OC-725C amplifier (Warner Instruments, Hamden, CT, USA) and pClamp10 software. Chemicals for recording and oocyte storage solutions were from Sigma-Aldrich (St. Louis, MO). Bath solution contained (in mM): 96 NaCl, 4 KCl, 1 MgCl2, 1 CaCl2, 10 HEPES (pH 7.6). Pipettes were 1–2 MΩ resistance when filled with 3 M KCl. We recorded currents in response to voltage pulses between −120 mV or −80 mV and +40 mV at 10 mV intervals from a holding potential of −80 mV, to yield current–voltage relationships and examine activation kinetics. We recorded and analyzed data using Clampfit (Molecular Devices, Sunnyvale, CA, USA) and Graphpad Prism software (GraphPad, San Diego, CA, USA), stating values as mean ± SEM. We calculated the voltage dependence of activation (V0.5) by measuring tail currents at a voltage pulse of −30 mV (Kv7) or −50 mV (Kv1), then fitted the tail current/voltage relationship with a single Boltzmann function:1 g=(A1−A2)/{1+exp[V1/2−V/Vs]}y+A2 where g is the normalized tail conductance, A1 is the initial value at −∞, A2 is the final value at +∞, V1/2 is the half-maximal voltage of activation and Vs the slope factor. We fitted activation and deactivation kinetics with single exponential functions.

In a further series the test system is human CD4 T cells. The experiment in a line: Human CD4 T cell proliferation assay (CFSE dilution, viability dye). The conditions noted are these: 96 h. The format is cell-based. The text has this: Whole blood from de-identified healthy donors, from whom informed consent was obtained, was obtained from the Institute for Clinical and Translational Science (ICTS) research Blood Donor Program at the University of California, Irvine approved and reviewed by the Institutional Review Boards of UCI (IRB protocol HS #2001-2058). All ethical regulations relevant to human research participants were followed. Peripheral blood mononuclear cells (PBMC) were isolated by density gradient separation using lymphocyte separation media (Corning, Cat# 25-072-CV) and SepMate tubes (STEMCELL Technologies, Cat# 85450). Blood was first diluted (1:3) in phosphate-buffered saline (PBS) containing 2% fetal bovine serum (FPS), then overlaid on top of lymphocyte separation media (2:1). CD4+ T cells were isolated from PBMCs using magnetic separation (EasySep Human CD4+ T cell isolation kit, STEMCELL Technologies, Cat# 17952), post isolation purity is typically >95% based on CD4 and CD3 staining. Purified CD4^+ T cells were labeled with 1.6 µM of CellTrace CFSE in AIM V Serum-Free Medium (Gibco Cat# 12055-083) for 8 min[84]. CFSE labeled CD4 T cells were stimulated with anti-CD3- and anti-CD28-coated Dynabeads (Thermo Fisher Scientific, Cat# 111310) at 1:1 ratio in a round-bottom 96-well plate at 37 °C and 5% CO2 in the dark for 96 h in T cell culture medium (RPMI with 10% FCS, L-glutamine, non-essential amino acids, sodium pyruvate, β-mercaptoethanol and penn–strep with amphotericin B). On day 4 cells were stained with Fixable Viability Dye eFluor 780 (FVD-780, Thermo Fisher Scientific, Cat# 65-0865-14) in PBS for 20 min at 4 °C to identify dead cells. Cells were then washed with 1× PBS + 1% FBS twice and transferred to a round-bottom 96-deep well plate (Greiner, Cat# 07-000-119) for flow cytometry. Fluorescence intensity data were acquired using NovoCyte Quanteon (Agilent Technologies) flow cytometer. FSC files were used for gating and analysis using FlowJo analysis software (FlowJo LLC, Ashland, OR). […]

A further series concerns the target Kv1.1 (Homo sapiens, UniProt Q09470). Further details: method as in PMID 33093824. The conditions noted are these: cited from earlier work.

Several values for one entry are separate records, joined by “and”; a condition that tells them apart may be missing. Equal entries are not always repeated.

Kv1.1, sequence (Q09470 whole entry): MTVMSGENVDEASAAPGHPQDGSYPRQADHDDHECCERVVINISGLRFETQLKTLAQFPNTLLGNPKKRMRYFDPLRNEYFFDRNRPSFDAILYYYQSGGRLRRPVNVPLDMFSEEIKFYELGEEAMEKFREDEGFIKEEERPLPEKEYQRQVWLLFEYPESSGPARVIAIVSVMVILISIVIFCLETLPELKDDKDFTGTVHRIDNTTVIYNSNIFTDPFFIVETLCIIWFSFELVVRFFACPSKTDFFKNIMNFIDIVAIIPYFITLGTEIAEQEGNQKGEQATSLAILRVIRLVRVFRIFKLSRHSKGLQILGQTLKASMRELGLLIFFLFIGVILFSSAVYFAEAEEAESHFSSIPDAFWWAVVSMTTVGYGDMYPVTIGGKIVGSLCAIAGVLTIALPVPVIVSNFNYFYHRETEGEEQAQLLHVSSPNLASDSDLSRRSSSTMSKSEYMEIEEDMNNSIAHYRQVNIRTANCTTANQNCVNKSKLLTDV

Regarding tannic acid, the “Current at 0 (mV)” value is 0.44 ± 0.08 on TREK-1 (KCNK2) (10 µM tannic acid, control 0.23 ± 0.03); 0.89 ± 0.11 at TREK-1 (KCNK2) (50 µM tannic acid); 1.37 ± 0.14 on TREK-1 (KCNK2) (100 µM tannic acid); 1.86 ± 0.19 at TREK-1 (KCNK2) (250 µM tannic acid); 2.22 ± 0.24 at TREK-1 (KCNK2) (500 µM tannic acid). Further, the “increase in KCNK2 current” value at TREK-1 (KCNK2) (at 500 µM, 0 mV) is on record as more than 10 fold. On TREK-1 (KCNK2) (current fold increase at 0 mV, read-out: EC50 for KCNK2 (TREK-1) activation), the EC50 came out at 143 ± 4 µM. Moreover, in the series with human CD4 T cells (mean of 9 donors), the “LD50 (viability dose–response)” value was determined as 87 µM. Besides, in the series with human CD4 T cells (CD3/CD28 Dynabead stimulation, 10% FCS), the “IC50 for limiting T cell proliferation (division index)” value was 35 µM and 35.03 µM. Also, in the series with human CD4 T cells (at 50 µM), the cell viability is given as 76.96 ± 8.922%. Further, on Kv1.1, the “effect on voltage dependence of Kv1.1” value is reported as “negative-shift”.
